Measured values as given in ChEMBL document CHEMBL1140860, “Synthesis and evaluation of dihydroartemisinin and dihydroartemisitene acetal dimers showing anticancer and antiprotozoal activity” (Bioorg Med Chem, 2009).

Columns and labels:
[1] = system: CCRF-CEM; assay: Growth inhibition of human CCRF-CEM cells after 48 hrs by sulforhodamine B assay; format: functional
[2] = system: HL-60; assay: Growth inhibition of human HL-60(TB) cells after 48 hrs by sulforhodamine B assay; format: functional; conditions: HL-60, 48 h
[3] = system: K562; assay: Growth inhibition of human K562 cells after 48 hrs by sulforhodamine B assay; format: functional; conditions: K562, 48 h
[4] = system: MOLT-4; assay: Growth inhibition of human MOLT4 cells after 48 hrs by sulforhodamine B assay; format: functional; conditions: MOLT-4, 48 h
[5] = Growth inhibition of human […] cells after 48 hrs by sulforhodamine B assay; format: functional
[6] = system: A549; assay: Growth inhibition of human A549 cells after 48 hrs by sulforhodamine B assay; format: functional; conditions: A549, 48 h
[7] = system: HCC 2998; assay: Growth inhibition of human HCC2998 cells after 48 hrs by sulforhodamine B assay; format: functional; conditions: HCC 2998, 48 h
[8] = system: HCT-116; assay: Growth inhibition of human HCT116 cells after 48 hrs by sulforhodamine B assay; format: functional; conditions: HCT-116, 48 h
[9] = system: HCT-15; assay: Growth inhibition of human HCT15 cells after 48 hrs by sulforhodamine B assay; format: functional; conditions: HCT-15, 48 h
[10] = system: HT-29; assay: Growth inhibition of human HT-29 cells after 48 hrs by sulforhodamine B assay; format: functional; conditions: HT-29, 48 h
[11] = system: KM12; assay: Growth inhibition of human KM12 cells after 48 hrs by sulforhodamine B assay; format: functional; conditions: KM12, 48 h
[12] = system: SW-620; assay: Growth inhibition of human SW620 cells after 48 hrs by sulforhodamine B assay; format: functional; conditions: SW-620, 48 h
[13] = system: SF-268; assay: Growth inhibition of human SF268 cells after 48 hrs by sulforhodamine B assay; format: functional; conditions: SF-268, 48 h
[14] = system: SF-295; assay: Growth inhibition of human SF295 cells after 48 hrs by sulforhodamine B assay; format: functional; conditions: SF-295, 48 h
[15] = system: SF-539; assay: Growth inhibition of human SF539 cells after 48 hrs by sulforhodamine B assay; format: functional; conditions: SF-539, 48 h
[16] = system: SNB-19; assay: Growth inhibition of human SNB19 cells after 48 hrs by sulforhodamine B assay; format: functional; conditions: SNB-19, 48 h
[17] = system: SNB-75; assay: Growth inhibition of human SNB75 cells after 48 hrs by sulforhodamine B assay; format: functional; conditions: SNB-75, 48 h
[18] = system: U-251; assay: Growth inhibition of human U251 cells after 48 hrs by sulforhodamine B assay; format: functional; conditions: U-251, 48 h
[19] = system: LOX IMVI; assay: Growth inhibition of human LOXIMVI cells after 48 hrs by sulforhodamine B assay; format: functional
[20] = system: M14; assay: Growth inhibition of human M14 cells after 48 hrs by sulforhodamine B assay; format: functional; conditions: M14, 48 h
[21] = system: Malme-3M; assay: Growth inhibition of human MALME-3M cells after 48 hrs by sulforhodamine B assay; format: functional
[22] = system: SK-MEL-2; assay: Growth inhibition of human SK-MEL-2 cells after 48 hrs by sulforhodamine B assay; format: functional; conditions: SK-MEL-2, 48 h
[23] = system: SK-MEL-28; assay: Growth inhibition of human SK-MEL-28 cells after 48 hrs by sulforhodamine B assay; format: functional; conditions: SK-MEL-28, 48 h
[24] = system: SK-MEL-5; assay: Growth inhibition of human SK-MEL-5 cells after 48 hrs by sulforhodamine B assay; format: functional; conditions: SK-MEL-5, 48 h
[25] = system: UACC-257; assay: Growth inhibition of human UACC257 cells after 48 hrs by sulforhodamine B assay; format: functional; conditions: UACC-257, 48 h
[26] = system: UACC-62; assay: Growth inhibition of human UACC62 cells after 48 hrs by sulforhodamine B assay; format: functional; conditions: UACC-62, 48 h
[27] = system: IGROV-1; assay: Growth inhibition of human IGROV1 cells after 48 hrs by sulforhodamine B assay; format: functional; conditions: IGROV-1, 48 h
[28] = system: OVCAR-3; assay: Growth inhibition of human OVCAR-3 cells after 48 hrs by sulforhodamine B assay; format: functional; conditions: OVCAR-3, 48 h
[29] = system: OVCAR-4; assay: Growth inhibition of human OVCAR4 cells after 48 hrs by sulforhodamine B assay; format: functional; conditions: OVCAR-4, 48 h
[30] = system: OVCAR-5; assay: Growth inhibition of human OVCAR5 cells after 48 hrs by sulforhodamine B assay; format: functional; conditions: OVCAR-5, 48 h
[31] = system: OVCAR-8; assay: Growth inhibition of human OVCAR8 cells after 48 hrs by sulforhodamine B assay; format: functional; conditions: OVCAR-8, 48 h
[32] = system: SK-OV-3; assay: Growth inhibition of human SKOV3 cells after 48 hrs by sulforhodamine B assay; format: functional; conditions: SK-OV-3, 48 h
[33] = system: 786-0; assay: Growth inhibition of human 786-0 cells after 48 hrs by sulforhodamine B assay; format: functional; conditions: 786-0, 48 h
[34] = system: A498; assay: Growth inhibition of human A498 cells after 48 hrs by sulforhodamine B assay; format: functional; conditions: A498, 48 h
[35] = system: ACHN; assay: Growth inhibition of human ACHN cells after 48 hrs by sulforhodamine B assay; format: functional
[36] = system: CAKI-1; assay: Growth inhibition of human Caki1 cells after 48 hrs by sulforhodamine B assay; format: functional; conditions: CAKI-1, 48 h
[37] = system: RXF 393; assay: Growth inhibition of human RXF393 cells after 48 hrs by sulforhodamine B assay; format: functional; conditions: RXF 393, 48 h
[38] = system: SN12C; assay: Growth inhibition of human SN12C cells after 48 hrs by sulforhodamine B assay; format: functional
[39] = system: TK-10; assay: Growth inhibition of human TK10 cells after 48 hrs by sulforhodamine B assay; format: functional; conditions: TK-10, 48 h
[40] = system: UO-31; assay: Growth inhibition of human UO31 cells after 48 hrs by sulforhodamine B assay; format: functional; conditions: UO-31, 48 h
[41] = system: PC-3; assay: Growth inhibition of human PC3 cells after 48 hrs by sulforhodamine B assay; format: functional; conditions: PC-3, 48 h
[42] = system: MCF7; assay: Growth inhibition of human MCF7 cells after 48 hrs by sulforhodamine B assay; format: functional; conditions: MCF7, 48 h
[43] = system: NCI/ADR-RES; assay: Growth inhibition of human NCI/ADR-RES cells after 48 hrs by sulforhodamine B assay; format: functional
[44] = system: MDA-MB-231; assay: Growth inhibition of human MDA-MB-231 cells after 48 hrs by sulforhodamine B assay; format: functional; conditions: MDA-MB-231, 48 h
[45] = Growth inhibition of human Hs 578T cells after 48 hrs by sulforhodamine B assay; format: functional
[46] = system: MDA-MB-435; assay: Growth inhibition of human MDA-MB-435 cells after 48 hrs by sulforhodamine B assay; format: functional; conditions: MDA-MB-435, 48 h
[47] = system: MDA-N; assay: Growth inhibition of human MDA-N cells after 48 hrs by sulforhodamine B assay; format: functional
[48] = system: BT-549; assay: Growth inhibition of human BT549 cells after 48 hrs by sulforhodamine B assay; format: functional; conditions: BT-549, 48 h
[49] = system: T47D; assay: Growth inhibition of human T47D cells after 48 hrs by sulforhodamine B assay; format: functional
[50] = system: Plasmodium falciparum; assay: Antimalarial activity after 72 hrs against chloroquine-sensitive Plasmodium falciparum D6 infected in erythrocytes by LDH assay; format: functional, organism-based; conditions: D6, 72 h
[51] = Selectivity index, ratio of TC50 for african green monkey (Cercopithecus aethiops) Vero cells to IC50 for chloroquine-sensitive Plasmodium falciparum D6; format: toxicity, cell-based
[52] = system: Plasmodium falciparum; assay: Antimalarial activity after 72 hrs against chloroquine-resistant Plasmodium falciparum W2 infected erythrocytes by LDH assay; format: functional, organism-based; conditions: W2, 72 h
[53] = Selectivity index, ratio of TC50 for african green monkey (Cercopithecus aethiops) Vero cells to IC50 for chloroquine-resistant Plasmodium falciparum W2; format: toxicity, cell-based
[54] = Cytotoxicity against african green monkey Vero cells after 48 hrs by neutral red assay; format: cell-based; conditions: chlorocebus sabaeus, read-out: TC50
[55] = system: EKVX; assay: Growth inhibition of human EKVX cells after 48 hrs by sulforhodamine B assay; format: functional
[56] = system: HOP-62; assay: Growth inhibition of human HOP62 cells after 48 hrs by sulforhodamine B assay; format: functional; conditions: HOP-62, 48 h
[57] = system: HOP-92; assay: Growth inhibition of human HOP92 cells after 48 hrs by sulforhodamine B assay; format: functional; conditions: HOP-92, 48 h
[58] = system: NCI-H226; assay: Growth inhibition of human NCI-H226 cells after 48 hrs by sulforhodamine B assay; format: functional; conditions: NCI-H226, 48 h
[59] = system: NCI-H23; assay: Growth inhibition of human NCI-H23 cells after 48 hrs by sulforhodamine B assay; format: functional; conditions: NCI-H23, 48 h
[60] = system: NCI-H322M; assay: Growth inhibition of human NCI-H322M cells after 48 hrs by sulforhodamine B assay; format: functional
[61] = system: NCI-H460; assay: Growth inhibition of human NCI-H460 cells after 48 hrs by sulforhodamine B assay; format: functional; conditions: NCI-H460, 48 h
[62] = system: NCI-H522; assay: Growth inhibition of human NCI-H522 cells after 48 hrs by sulforhodamine B assay; format: functional; conditions: NCI-H522, 48 h
[63] = system: COLO 205; assay: Growth inhibition of human COLO205 cells after 48 hrs by sulforhodamine B assay; format: functional; conditions: COLO 205, 48 h

C[C@H]1[C@@H](O[C@@H](C)CO[C@H]2O[C@@H]3O[C@@]4(C)CC[C@H]5[C@H](C)CC[C@@H]([C@H]2C)[C@@]35OO4)O[C@@H]2O[C@@]3(C)CC[C@H]4[C@H](C)CC[C@@H]1[C@@]24OO3
GI50 [1]: 18 nM | GI50 [2]: < 10 nM | GI50 [3]: < 10 nM | GI50 [4]: < 10 nM | GI50 [5]: < 10 nM | GI50 [6]: 18 nM | GI50 [7]: 49 nM | GI50 [8]: < 10 nM | GI50 [9]: < 10 nM | GI50 [10]: 12 nM | GI50 [11]: < 10 nM | GI50 [12]: < 10 nM | GI50 [13]: 65 nM | GI50 [14]: 92 nM | GI50 [15]: 39 nM | GI50 [16]: 104 nM | GI50 [17]: 332 nM | GI50 [18]: < 10 nM | GI50 [19]: 179 nM | GI50 [20]: 18 nM | GI50 [21]: 37 nM | GI50 [22]: 62 nM | GI50 [23]: 16300 nM | GI50 [24]: 29 nM | GI50 [25]: 21 nM | GI50 [26]: 16 nM | GI50 [27]: 130 nM | GI50 [28]: 46 nM | GI50 [29]: 72 nM | GI50 [30]: 27 nM | GI50 [31]: 34 nM | GI50 [32]: 23600 nM | GI50 [33]: 48 nM | GI50 [34]: 409 nM | GI50 [35]: 33 nM | GI50 [36]: 376 nM | GI50 [37]: < 10 nM | GI50 [38]: 25 nM | GI50 [39]: 17900 nM | GI50 [40]: 31 nM | GI50 [41]: 9 nM | GI50 [42]: < 10 nM | GI50 [43]: 264 nM | GI50 [44]: 80 nM | GI50 [45]: 21 nM | GI50 [46]: 27 nM | GI50 [47]: 42 nM | GI50 [48]: 58 nM | GI50 [49]: < 10 nM | IC50 [50]: 3800 nM | selectivity ratio [51]: > 21 | IC50 [52]: 5100 nM | selectivity ratio [53]: > 15 | CC50 at 48 h [54]: > 78000 nM | GI50 [55]: 37 nM | GI50 [56]: 15900 nM | GI50 [57]: 63 nM | GI50 [58]: 226 nM | GI50 [59]: 37 nM | GI50 [60]: 88 nM | GI50 [61]: 27 nM | GI50 [62]: 54 nM | GI50 [63]: 12 nM
